Assay results as given in publication PMC12040169 (PLOS Biology, 2025).

Assay: in vitro
Settings: human, hela cells, % viability

| Structure (SMILES) | viability at 28.5 h, 10 µM [%] |
| --- | --- |
| O=C(c1cc(-c2ccncc2)nc2ccc(Cl)cc12)N1CCN(Cc2ccc3c(c2)OCO3)CC1 [CBK267765] | 85.4 |
| COc1ccc(S(=O)(=O)N2CCN(C(=O)c3cc(-c4cccnc4)nc4c(C)cc(C)cc34)CC2)cc1OC [CBK267767] | 99.4 |
| Cc1cc(C)c2nc(-c3ccccn3)cc(C(=O)NCc3cccs3)c2c1 [CBK267772] | 86.1 |
| CC(=O)Nc1cccc(NC(=O)c2cc(-c3ccncc3)nc3ccc(Cl)cc23)c1 [CBK267773] | 92.6 |
| NS(=O)(=O)c1ccc(CNC(=O)c2cc(-c3cccc(Cl)c3)nc3ccccc23)cc1 [CBK267774] | 88.7 |
| CNS(=O)(=O)c1ccc(NC(=O)c2cc(-c3cccnc3)nc3ccc(Br)cc23)cc1 [CBK267776] | 95.5 |
| COc1ccc(NC(=O)c2cc(-c3cccc(Cl)c3)nc3ccccc23)c([N+](=O)[O-])c1 [CBK267777] | 86.7 |
| Cc1cc(C)c2nc(-c3ccccn3)cc(C(=O)Nc3ccc(S(=O)(=O)Nc4cc(C)on4)cc3)c2c1 [CBK267779] | 105 |
| Cc1c(-c2cccc(Cl)c2)nc2ccccc2c1C(=O)NCCc1ccc(S(N)(=O)=O)cc1 [CBK267784] | 96 |
| O=C(Oc1cccc(-c2cnc3ccccc3n2)c1)c1ccc(S(=O)(=O)N2CCCCC2)cc1 [CBK267785] | 104 |
| O=C(O)c1[nH]c2ccccc2c1C(c1cccs1)c1c(C(=O)O)[nH]c2ccccc12 [CBK267786] | 118 |
| N#CC1=C(N)Oc2[nH]nc(-c3ccccc3)c2C12C(=O)N(Cc1ccccc1)c1ccccc12 (stereo not drawn) [CBK267787] | 93.7 |
| O=C(O)c1[nH]c2ccccc2c1C(c1ccc(OC2CCCC2)cc1)c1c(C(=O)O)[nH]c2ccccc12 [CBK267789] | 85.9 |
| CN(C)CCNCCCSc1ccc(Cl)cc1 [CBK267794C] | 104 |
| O=C(c1c[nH]c2ccccc12)C(O)C(c1ccccc1)N1CCCCC1 (stereo not drawn) [CBK267799] | 94.1 |
| CN(C)CCNCCOc1cccc([N+](=O)[O-])c1 [CBK267803C] | 99.7 |
| COc1cc(C(c2c(C(=O)O)[nH]c3ccccc23)c2c(C(=O)O)[nH]c3ccccc23)cc(I)c1O [CBK267804] | 90.6 |
| Cc1ccc(OC(=O)c2ccc(S(=O)(=O)N(C)C)cc2)c(-n2nc3ccccc3n2)c1 [CBK267805] | 81.2 |
| O=C(Nc1ccccc1)c1ccc(S(=O)(=O)N2CCC(C(=O)O)CC2)cc1 [CBK267806] | 89.7 |
| CN(C)S(=O)(=O)c1ccc(C(=O)Nc2ccccc2O)cc1 [CBK267809] | 94.1 |

| Structure (SMILES) | viability at 28.5 h, 10 µM [%] |
| --- | --- |
| CC(NC(=O)c1ccccc1Br)c1nnc(SCc2ccc([N+](=O)[O-])cc2)n1C (stereo not drawn) [CBK267810] | 103 |
| O=C(O)c1[nH]c2ccccc2c1C(c1ccsc1)c1c(C(=O)O)[nH]c2ccccc12 [CBK267811] | 103 |
| O=C(Oc1ccc(-c2cnc3ccccc3n2)cc1)c1ccc(S(=O)(=O)N2CCCCC2)cc1 [CBK267812] | 93.7 |
| O=C(O)c1[nH]c2ccccc2c1C(c1cc(Cl)cc([N+](=O)[O-])c1O)c1c(C(=O)O)[nH]c2ccccc12 [CBK267814] | 95.6 |
| CCN1CCCC1CNS(=O)(=O)c1cc(C(N)=O)ccc1OC (stereo not drawn) [CBK267815] | 115 |
| Cc1ccc(C)c(OCCNCCN(C)C)c1Cl [CBK267816C] | 88.5 |
| CN(Cc1ccccc1)C(=O)c1ccccc1NC(=O)c1ccccc1 [CBK267818] | 107 |
| Cc1ccc(SCCCn2cnc3ccccc32)cc1 [CBK267821G] | 93.7 |
| CN1CCN(C(c2ccccc2)C(O)C(=O)c2c[nH]c3ccccc23)CC1 (stereo not drawn) [CBK267823] | 103 |
| CC1(C)[N+]([O-])=CC(c2ccc(-c3ccccc3)cc2)=[N+]([O-])C1(C)C [CBK267825] | 98.7 |
| O=C(CSCc1ccccc1Cl)NNC(=O)c1cccnc1 [CBK267826] | 113 |
| COc1cccc(NC(=O)c2ccc(N(C)Cc3ccccc3)c([N+](=O)[O-])c2)c1 [CBK267827] | 95.1 |
| O=C(CNC(=O)C1CCCCC1)NNC(=O)c1ccccc1Br [CBK267828] | 102 |
| O=C(Nc1ccc(/C=C/c2ccccc2)cc1)c1ccc(COc2ccccc2)o1 [CBK267829] | 91.3 |
| Cc1nnc(SCc2nc3ccccc3c(=O)[nH]2)[nH]1 [CBK267830] | 90 |
| Cn1cccc1CNCCc1ccc(S(N)(=O)=O)cc1 [CBK267831C] | 98.7 |
| COc1ccc(CC(=O)Nc2ccc(S(=O)(=O)NC(C)C)cc2)cc1 [CBK267833] | 93.2 |
| Cc1ccc(NS(=O)(=O)c2ccc(OCC(=O)N3CCN(C)CC3)c(C)c2)cc1 [CBK267834] | 110 |
| COc1ccc(Cl)cc1NC(=O)CN(c1cccc(C(C)=O)c1)S(C)(=O)=O [CBK267835] | 108 |
| Cc1ccccc1NC(=O)NCCCN1CCN(C)CC1 [CBK267837] | 85.2 |

| Structure (SMILES) | viability at 28.5 h, 10 µM [%] |
| --- | --- |
| COc1cc(/C=C(/C#N)c2nc3ccccc3[nH]2)ccc1OCc1ccc(C(=O)O)o1 [CBK267839] | 90.7 |
| COc1ccc(C(=O)NC(=N)NCCc2c[nH]c3ccccc23)cc1 [CBK267840] | 111 |
| O=C(CSCc1ccc(Br)cc1)Nc1ccc(S(=O)(=O)N2CCOCC2)cc1 [CBK267845] | 97.1 |
| COc1ccc(OC)c(NC(=O)CNC(=O)c2ccccc2F)c1 [CBK267846] | 91.5 |
| COc1ccc(C)cc1S(=O)(=O)N(CC(=O)O)Cc1ccccc1 [CBK267847] | 108 |
| O=C(O)c1cc(-c2ccc(F)cc2)n[nH]1 [CBK267848] | 96.1 |
| CC(=O)Nc1ccc(C(=O)CSc2nnc(C)o2)cc1 [CBK267851] | 107 |
| O=C(OCc1cccc(C(=O)c2ccccc2)c1)c1ccc(-c2nnc(-c3ccccc3)o2)cc1 [CBK267852] | 104 |
| Nc1nnc(SCC(=O)NCc2ccc3c(c2)OCO3)s1 [CBK267853] | 101 |
| CS(=O)(=O)N(CC(=O)Nc1ccccc1C(F)(F)F)Cc1ccc(Cl)cc1 [CBK267854] | 108 |
| COc1c(C)cc(Br)cc1C(=O)NC(=S)Nc1ccccc1N1CCN(C)CC1 [CBK267855C] | 97.1 |
| Fc1ccc(OCc2ccc(-c3nnn[nH]3)cc2)cc1 [CBK267859] | 106 |
| COC(=O)c1ccccc1NC(=O)CNC(=O)c1ccc(Cl)cc1Cl [CBK267860] | 105 |
| N#Cc1ccc(N2CCN(CCCNC(=O)Nc3ccccc3)CC2)cc1 [CBK267861] | 95 |
| O=[N+]([O-])c1cccc(S(=O)(=O)NCCSc2ccccc2)c1 [CBK267862] | 94.1 |
| N#CCCn1cc(C(=O)Nc2ccc(C(=O)O)cc2)c(-c2cc3ccccc3o2)n1 [CBK267866] | 96.6 |
| Cn1c(SCC(=O)Nc2ccnc3ccccc23)nnc1-c1ccncc1 [CBK267867] | 105 |
| O=C(NCCSCc1ccco1)Nc1ccc(Cl)cc1 [CBK267869] | 97.3 |
| O=C(NC(=S)Nc1cccc(-c2nc3ncccc3o2)c1)c1ccc(-c2cccc([N+](=O)[O-])c2)o1 [CBK267870] | 83.4 |
| O=C(CSc1nc2ccccc2c2nc3ccccc3n12)Nc1cccc(Cl)c1 [CBK267872] | 94.2 |
